Data reported in US20210315844A1, “ENDOXIFEN FOR THE TREATMENT OF BIPOLAR I DISORDER” (Jina Pharmaceuticals, Inc., priority 2020, published 2021).

Experiments:
[1] = system: patient of bipolar I disorders; assay: Clinical study: C-SSRS score / risk of suicidal behavior in patients treated with endoxifen enteric coated tablet; assay type: in vivo, human; details: day 21 (EOT)
Method: Clinical study of an enteric coated tablet comprising endoxifen citrate formulation was carried out by administering to the patient doses of 2 mg to 16 mg of endoxifen citrate in an enteric coated tablet once per day for at least 21 days according to the present application.
This study was a multicenter, randomized, double-blind, double-dummy, active controlled, parallel study to assess the efficacy and safety of endoxifen enteric coated tablet 8 mg and divalproex sodium extended release tablet 1000 mg in patient of bipolar I disorders, this study also evaluated the risk of suicidal behavior in the patient and that has progressed during or after treatment with at least one drug(s) selected from lithium, valproate, carbamazepine or an atypical (except clozapine) or typical antipsychotic.
Total 110 patients were qualified for PP population.

PKC = details: relative to tamoxifen; cited from earlier work

For CC/C(=C(\c1ccc(O)cc1)c1ccc(OCCNC)cc1)c1ccccc1.O=C(O)CC(O)(CC(=O)O)C(=O)O [Endoxifen, (Z)-1-(4-Hydroxyphenyl)-1-{4-[2-(monomethylamino)ethoxy]phenyl}-2-phenyl-1-butene citrate], which “risk of suicidal behavior” value [1] is on record?
Its value is “zero”.

And the “potency in inhibiting the PKC activity compared to tamoxifen” value (PKC)?
The value was “four-fold higher potency”.
